± gives the expanded uncertainty stated by the source.
Experiments:
[1] = excess molar enthalpy (molar enthalpy of mixing); xn = mol fraction of the nth substance listed; conditions: 308.15 K, 100 kPa, Liquid, Calvet calorimetry
[2] = molar heat capacity at constant pressure; xn = mol fraction of the nth substance listed; conditions: 100 kPa, Liquid, Extra sensitive DSC

O=C1CCCCC1 [cyclohexanone] + C1CCOCC1
[1]
Conditions | excess molar enthalpy [kcal/mol]
x2 = 0.0989 | 0.0098 ± 0.000311
x2 = 0.1475 | 0.014 ± 0.000382
x2 = 0.1926 | 0.017 ± 0.000454
x2 = 0.2415 | 0.0206 ± 0.000526
x2 = 0.2953 | 0.0231 ± 0.000574
x2 = 0.3416 | 0.0253 ± 0.000621
x2 = 0.3952 | 0.0268 ± 0.000645
x2 = 0.4426 | 0.0274 ± 0.000669
x2 = 0.4956 | 0.0276 ± 0.000669
x2 = 0.5425 | 0.0271 ± 0.000645
x2 = 0.5982 | 0.0257 ± 0.000621
x2 = 0.641 | 0.0244 ± 0.000598
x2 = 0.6825 | 0.0227 ± 0.00055
x2 = 0.7333 | 0.02 ± 0.000502
x2 = 0.7865 | 0.0167 ± 0.00043
x2 = 0.8359 | 0.0132 ± 0.000382
x2 = 0.8875 | 0.0093 ± 0.000311
x2 = 0.9299 | 0.00576 ± 0.000239

molar heat capacity at constant pressure [J/K/mol], [2]
Conditions | 293.15 K | 298.15 K | 303.15 K | 308.15 K
x2 = 0.0995 | 176.32 ± 6.8 | 178.62 ± 6.9 | 180.9 ± 7 | 183.36 ± 7.1
x2 = 0.1452 | 175.99 ± 6.8 | 178.41 ± 6.9 | 181.03 ± 7 | 183.58 ± 7.1
x2 = 0.1965 | 175.76 ± 6.8 | 178.4 ± 6.9 | 181.02 ± 7 | 183.49 ± 7.1
x2 = 0.2456 | 175.65 ± 6.8 | 178.24 ± 6.9 | 180.93 ± 7 | 183.53 ± 7.1
x2 = 0.2863 | 175.47 ± 6.8 | 178.06 ± 6.9 | 180.64 ± 7 | 183.3 ± 7.1
x2 = 0.3321 | 175.13 ± 6.8 | 177.68 ± 6.9 | 180.22 ± 7 | 182.87 ± 7.1
x2 = 0.3845 | 174.53 ± 6.8 | 177.03 ± 6.9 | 179.51 ± 7 | 182.09 ± 7.1
x2 = 0.4215 | 173.95 ± 6.8 | 176.42 ± 6.8 | 178.92 ± 6.9 | 181.49 ± 7
x2 = 0.4723 | 172.86 ± 6.7 | 175.29 ± 6.8 | 177.75 ± 6.9 | 180.31 ± 7
x2 = 0.5241 | 171.58 ± 6.7 | 173.99 ± 6.8 | 176.42 ± 6.8 | 178.98 ± 7
x2 = 0.5796 | 169.75 ± 6.6 | 172.22 ± 6.7 | 174.56 ± 6.8 | 177.13 ± 6.9
x2 = 0.6153 | 168.49 ± 6.5 | 170.9 ± 6.6 | 173.23 ± 6.7 | 175.87 ± 6.8
x2 = 0.6654 | 166.35 ± 6.5 | 168.77 ± 6.5 | 171.21 ± 6.6 | 173.73 ± 6.7
x2 = 0.7132 | 164.19 ± 6.4 | 166.61 ± 6.5 | 168.92 ± 6.6 | 171.57 ± 6.7
x2 = 0.7698 | 161.26 ± 6.3 | 163.68 ± 6.3 | 165.99 ± 6.4 | 168.56 ± 6.5
x2 = 0.8265 | 158.18 ± 6.1 | 160.54 ± 6.2 | 162.79 ± 6.3 | 165.3 ± 6.4
x2 = 0.8732 | 155.48 ± 6 | 157.76 ± 6.1 | 159.9 ± 6.2 | 162.31 ± 6.3
x2 = 0.9245 | 152.46 ± 5.9 | 154.55 ± 6 | 156.51 ± 6.1 | 158.75 ± 6.2

O=C1CCCCCC1 [cycloheptanone] + C1COCCO1
[1]
Conditions | excess molar enthalpy [kcal/mol]
x2 = 0.0726 | 0.00727 ± 0.000263
x2 = 0.1258 | 0.0119 ± 0.000359
x2 = 0.1769 | 0.0154 ± 0.000406
x2 = 0.2252 | 0.0187 ± 0.000478
x2 = 0.2786 | 0.0213 ± 0.000526
x2 = 0.3286 | 0.0234 ± 0.000574
x2 = 0.3746 | 0.0247 ± 0.000598
x2 = 0.4282 | 0.0255 ± 0.000621
x2 = 0.4712 | 0.0258 ± 0.000621
x2 = 0.5232 | 0.0254 ± 0.000621
x2 = 0.5725 | 0.0247 ± 0.000598
x2 = 0.6235 | 0.0233 ± 0.000574
x2 = 0.6762 | 0.0212 ± 0.000526
x2 = 0.7256 | 0.0191 ± 0.000478
x2 = 0.7716 | 0.0166 ± 0.00043
x2 = 0.8125 | 0.0141 ± 0.000382
x2 = 0.8682 | 0.0101 ± 0.000311
x2 = 0.9129 | 0.007 ± 0.000263

molar heat capacity at constant pressure [J/K/mol], [2]
Conditions | 293.15 K | 298.15 K | 303.15 K | 308.15 K
x2 = 0.0943 | 199.36 ± 7.7 | 200.68 ± 7.8 | 202.21 ± 7.8 | 203.95 ± 7.9
x2 = 0.1587 | 198.02 ± 7.7 | 199.53 ± 7.7 | 201.25 ± 7.8 | 203.14 ± 7.9
x2 = 0.2016 | 197.04 ± 7.7 | 198.63 ± 7.7 | 200.42 ± 7.8 | 202.4 ± 7.9
x2 = 0.2574 | 195.59 ± 7.6 | 197.23 ± 7.7 | 199.23 ± 7.7 | 201.2 ± 7.8
x2 = 0.3025 | 194.28 ± 7.5 | 196 ± 8 | 197.99 ± 7.7 | 200.03 ± 7.8
x2 = 0.3412 | 193.02 ± 7.5 | 194.78 ± 7.6 | 196.83 ± 7.6 | 198.81 ± 7.7
x2 = 0.3986 | 190.94 ± 7.4 | 192.67 ± 7.5 | 194.91 ± 7.6 | 196.9 ± 7.6
x2 = 0.4215 | 189.98 ± 7.4 | 191.84 ± 7.4 | 194.03 ± 7.5 | 196.02 ± 7.6
x2 = 0.4796 | 187.51 ± 7.3 | 189.28 ± 7.3 | 191.5 ± 7.4 | 193.56 ± 7.5
x2 = 0.5213 | 185.45 ± 7.2 | 187.35 ± 7.3 | 189.58 ± 7.4 | 191.52 ± 7.4
x2 = 0.5743 | 182.67 ± 7.1 | 184.52 ± 7.2 | 186.79 ± 7.2 | 188.83 ± 7.3
x2 = 0.6142 | 180.46 ± 7 | 182.26 ± 7.1 | 184.49 ± 7.2 | 186.55 ± 7.2
x2 = 0.6687 | 177.12 ± 6.9 | 178.92 ± 6.9 | 181.02 ± 7 | 183.16 ± 7.1
x2 = 0.7149 | 174.07 ± 6.8 | 175.86 ± 6.8 | 177.95 ± 6.9 | 180.03 ± 7
x2 = 0.7623 | 170.7 ± 6.6 | 172.51 ± 6.7 | 174.5 ± 6.8 | 176.57 ± 6.8
x2 = 0.8169 | 166.69 ± 6.5 | 168.4 ± 6.5 | 170.24 ± 6.6 | 172.25 ± 6.7
x2 = 0.8654 | 162.9 ± 6.3 | 164.56 ± 6.4 | 166.21 ± 6.5 | 168.11 ± 6.5
x2 = 0.9149 | 158.86 ± 6.2 | 160.38 ± 6.2 | 161.87 ± 6.3 | 163.59 ± 6.3

From the NIST ThermoML archive (doi:10.1021/acs.jced.6b00606)
